Assay results: US12458693B2, “Methods of treating iron overload with a BMP inhibitor” (Keros Therapeutics, Inc., priority 2020, dated 2025)
Entries after “also recorded” stand apart in the source; their conditions may differ.

Assays:
[1] = system: serum iron; experiment: Serum iron in healthy volunteers; format: in vivo, human
Description: (§1) Participants in Part 1 received a single oral dose of the compound of Formula I-11 or placebo on Day 1 and serial PK samples were collected. Baseline assessments were performed on day −1 prior to dosing. Samples were collected for determination of pharmacodynamic parameters at pre-dose daily and up to 24 hours post dose (day 2) after a single oral dose of the compound of Formula I-11. Participants remained at the study site for observation for 24 hours post-dose through the PK sample collection on Day 2. Participants returned to the site for the 48, 72, and 120-hour post-dose sample collection on Days 3, 4, and 6. Safety was evaluated by a Safety Review Committee prior to escalation to the next dose level cohort.
(§2) Participants in Part 2, Cohorts 1 through 3, received a daily oral dose of the compound of Formula I-11 (50, 100, or 200 mg liquid formulation respectively) or placebo for 7 days. A daily oral dose of the compound of Formula I-11 or placebo in participants in Part 2, Cohort 4 (350 mg liquid formulation) was planned for 14 days but was discontinued early in all subjects, either by the Investigator because of AEs, or by the Sponsor. A decision was made by the Sponsor to discontinue dosing of the entire cohort based on the frequency of AEs and laboratory abnormalities after Day 9. In Cohort 4, participants on the compound of Formula I-11 received daily oral dosing of 350 mg for up to 7 days; one placebo participant received daily oral dosing for 9 days. Samples were collected for determination of pharmacodynamic parameters at pre-dose daily and to 24 hours post dose (day 8) while on drug. Daily trough PK samples were collected for the determination of steady-state from Day 2 to Day 12 or 13. Participants returned to the site on Day 30 for an end-of-study visit. Safety was evaluated by a Safety Review Committee prior to escalation to the next dose level cohort.
(§3) Pharmacodynamic endpoints: Protocol-specified endpoints were assessed at baseline and regularly throughout the study period. These assessments included measurements of serum iron, transferrin saturation (calculated as serum iron/total iron-binding capacity), serum ferritin, serum hepcidin, and reticulocyte hemoglobin content. Measurements of all pharmacodynamic end points were made using standard clinical laboratory tests. Hepcidin analysis was performed using an ELISA kit from Intrinsic LifeSciences (Intrinsic Hepcidin IDx™ ELISA kit).

[2] = system: reticulocyte hemoglobin content; experiment: Reticulocyte hemoglobin content in healthy volunteers (MAD); format: in vivo, human
Description: as §2, §3

[3] = system: serum ferritin; experiment: Serum ferritin in healthy volunteers; format: in vivo, human
Description: as §1
Participants in Part 2, Cohorts 1 through 3, received a daily oral dose of the compound of Formula I-11 (50, 100, or 200 mg liquid formulation respectively) or placebo for 7 days. […] Safety was evaluated by a Safety Review Committee prior to escalation to the next dose level cohort.
(§4) Pharmacodynamic endpoints: Protocol-specified endpoints were assessed at baseline and regularly throughout the study period. These assessments included measurements of serum iron, transferrin saturation (calculated as serum iron/total iron-binding capacity), serum ferritin, serum hepcidin, and reticulocyte hemoglobin content. […]

[4] = Phase 1 SAD/MAD study in healthy volunteers: pharmacokinetics; format: in vivo, human
From the text: (§5) The primary objectives of this study were to a) evaluate safety and tolerability of escalating doses of the compound of Formula I-11 administered as single and multiple oral doses in healthy male volunteers and healthy postmenopausal female volunteers and b) evaluate the PK parameters following escalating doses of the compound of Formula I-11 administered as single and multiple oral doses. The secondary objective of this study was to evaluate the pharmacodynamic (PD) parameters following escalating doses of the compound of Formula I-11 administered as single and multiple oral doses. This study was conducted in two parts.
as §1, with “Participants remained at the study site for observation for 24 hours post-dose through the PK sample collection on Day 2. Participants returned to the site for the 48, 72, and 120-hour post-dose sample collection on Days 3, 4, and 6.” left out
Participants in Part 2, Cohorts 1 through 3, received a daily oral dose of the compound of Formula I-11 (50, 100, or 200 mg liquid formulation respectively) or placebo for 7 days. […] Safety was evaluated by a Safety Review Committee prior to escalation to the next dose level cohort. […]

[5] = system: lymphocytes; experiment: Lymphocyte counts in healthy volunteers (MAD); format: in vivo, human
Description: as §2

[6] = Phase 1 SAD/MAD study in healthy volunteers: safety and tolerability; format: in vivo, human; details: for dose level up to which well tolerated: healthy participants
From the text: A total of 131 healthy, males aged 18 to 60 years and post-menopausal females aged 45 to 60 years, participated in this study.
as §5
Part 1 included 80 participants (10 cohorts of 8 participants each). Male and female participants who met the eligibility criteria were randomly assigned, in a ratio of 3:1 to receive the compound of Formula I-11 or matching placebo, N=6 and 2 per dose cohort, respectively. Participant enrollment included […] males and 12.5% females (postmenopausal). The IMP formulation used in Cohorts 1 through 6 was an oral capsule (doses of 1, 3, 10, 30, 100, or 300 mg capsule formulation). An oral liquid formulation was evaluated in Cohorts 7 through 10 (doses of 30, 100, 300 or 450 mg liquid formulation).
as §1
Part 2, Cohorts 1 through 4, included 41 participants (4 cohorts of 10 participants each and 1 additional placebo participant in Cohort 1). Male and female participants who met the eligibility criteria were randomly assigned at a ratio of 4:1 to receive either the compound of Formula I-11 oral liquid formulation or matching placebo, N=8 and 2 per dose cohort respectively. Forty (97.6%) males and 1 (2.4%) female (placebo) participant were enrolled.
as §2
Part 2, MAD Cohort 5 (C5) participants received either the compound of Formula I-11, 100 mg (n=8) or placebo (n=2) on Days 1, 2, 3, 4, 5, 6, 7. The last dose was administered on the morning of Day 7. […]

[7] = system: transferrin saturation; experiment: Transferrin saturation (TSAT) in healthy volunteers; format: in vivo, human
Description: as §1, §2, §3

[8] = system: serum hepcidin; experiment: Serum hepcidin in healthy volunteers (Intrinsic Hepcidin IDx ELISA); format: in vivo, human
Description: as §2, with “Daily trough PK samples were collected for the determination of steady-state from Day 2 to Day 12 or 13. Participants returned to the site on Day 30 for an end-of-study visit.” left out, “cohort. […]” for “cohort.”
as §4

[9] = system: serum iron; experiment: Time course of serum iron in wild-type mice (bathophenanthroline disulfonate method); format: in vivo, C57BI/6 mice; details: 5 mg/kg gavage once daily
Description: (§6) To assess the effect of the compound of Formula I-42, a small molecule selective ALK2 kinase inhibitor, on hepcidin and serum iron, a time course experiment was conducted. For time course analysis, female C57BI/6 mice were gavaged once daily with either the compound of Formula I-42 (5 mg/kg), or vehicle. On the third treatment day, ten mice from each dosing group were euthanized 4, 6, 8, 12, 16, or 24 hours post-dosing. Blood was sampled and serum extracted. The mature form of hepcidin (hepcidin 25) was measured in serum with the use of a commercial ELISA (Intrinsic LifeSciences, CA) as per the manufacturer's instructions. Serum iron levels were determined with the use of a commercial assay that was based on the standard bathophenanthroline disulfonate method (BioAssay Systems, CA) as per the manufacturer's instructions. […] Data are shown as the average±SEM.

[10] = system: hepcidin 25; experiment: Time course of serum hepcidin in wild-type mice (ELISA); format: in vivo, C57BI/6 mice; details: 5 mg/kg gavage once daily, third treatment day
Description: as §6

[11] = system: liver iron content; experiment: Liver iron content in iron dextran mouse model of iron overload, first assay (30% HCl 10% TCA extraction); format: in vivo, CD1 mice; details: 5 mg/kg QD, by 63 hours of dosing, iron overloaded mice; ****P<0.0001
Description: (§7) After 20 days of iron loading, a subgroup of mice was sacrificed to confirm iron overload. The remaining iron loaded mice were dosed QD with either the compound of Formula I-42, a small molecule selective ALK2 kinase inhibitor (5 mg/kg) or vehicle. […] Mice were sacrificed 16 hours post the 1st dose (16 hr) and […] post the 3rd dose (63 hr) of the compound of Formula I-42 and livers dissected and weighed.
(§8) Two assays were performed to evaluate tissue iron. In the first assay, non-heme tissue iron was extracted via acid hydrolysis and iron levels determined using the bathophenanthroline disulfonate method. Briefly, 50 mg sections of mouse liver were flash frozen on liquid nitrogen at study termination. Samples were processed by addition of a 30% HCl 10% Trichloroacetic acid mixture and allowed to extract for 20 hours at 65° C. Following extraction, samples were cooled to room temperature and centrifuged briefly. Samples were transferred to a 96-well plate at the appropriate dilution and a chromogen reagent mixture containing bathophenanthrolinedisulfonic acid, thioglycolic acid, and saturated sodium acetate was added. Samples and standards were then read via absorbance at 535 nm on a SpectraMax plate reader immediately. Sample concentrations were determined by linear regression analysis in GraphPad Prism. […] Data are shown as average±SEM. […]

[12] = system: non-dextran-bound iron content in livers; experiment: Non-dextran-bound liver iron in iron dextran mouse model of iron overload, second assay (10% HCl 10% TCA extraction); format: in vivo, CD1 mice; details: 5 mg/kg QD, iron overloaded mice; **P<0.01, ****P<0.0001
Description: as §7
as §8, with “In” for “Two assays were performed to evaluate tissue iron. In”, “second” for “first”, “10%” for “30%”, “containing of” for “containing”, “standards and blanks” for “standards”, “after a brief incubation.” for “immediately.”

[13] = Day 4, MAD first dose level (50 mg daily)
[14] = Day 4, MAD fourth dose level (350 mg daily)
[15] = Day 4, MAD second dose level (100 mg daily)
[16] = Day 4, MAD third dose level (200 mg daily)

COc1cc2c(-c3cnn4cc(N5CCC(N6CCN(C)CC6)CC5)cnc34)ccnc2cc1F [Formula I-11]
serum iron mean change from baseline [1, 13]: 1.48 μM/L
serum iron mean change from baseline [1, 14]: 17.71 μM/L
serum iron mean change from baseline [1, 15]: 0.59 μM/L
serum iron mean change from baseline [1, 16]: 5.11 μM/L
serum iron concentrations by Day 7 ([1]; MAD, some participants exhibiting large PD effects on Day 4): returned to baseline or below
time of peak serum iron concentrations ([1]; multiple dose regimen, day of treatment): Day 3 or 4
effect on serum iron ([1]; single (SAD) or once-daily (MAD) oral administration): rapid, robust, and sustained dose-related increases in serum iron
time of peak serum iron effect ([1]; single dose, Day 2, post-dose): 24 h
peak increase in reticulocyte hemoglobin content ([2]; MAD): 7 days
start of increase in reticulocyte hemoglobin content ([2]; MAD cohorts 1-4, post-dosing): 4 days
effect on reticulocyte hemoglobin content ([2]; repeated administration): increases over baseline in the hemoglobin content of reticulocytes
effect on serum ferritin ([3]; MAD cohort participants): decreases were observed in serum ferritin
effect on serum ferritin, single versus multiple doses ([3]; SAD versus MAD): observed only after multiple doses
half-life ([4]; both sexes, human, in vivo, oral, approximately): 10 to 15 h
mean AUC and Cmax versus dose ([4]; multiple doses from 50-200 mg): increased linearly with greater than dose-proportional increases
reversibility of lymphopenia ([5]; after the treatment period ended): reversible
development of lymphopenia (lymphocyte counts<1.0×10^9 cells/L) ([5]; repeated oral administration, onward): ≥ 6 day
start of decreases in lymphocyte counts ([5]; repeated oral administration, post treatment, higher doses): 5 days
dose level up to which well tolerated ([6]; after 7 daily oral doses): up to 200 mg
AEs reported in >2 treated subjects and higher than placebo ([6]; human, in vivo): headache, nausea, vomiting, diarrhea, gastroenteritis, chills, pyrexia, myalgia, decreased appetite, lymphopenia, neutropenia, abdominal discomfort, abdominal pain (upper), dizziness, fatigue, rhinorrhea, tonsillitis, and liver enzyme increases
AEs that led to study drug discontinuation in three or more participants ([6]; human, in vivo): lymphopenia and chills
participants who discontinued the study due to AEs ([6]; human, in vivo): 10 of 40 (25%)
serious adverse events ([6]; human, in vivo): no serious adverse events
severity of the majority of AEs ([6]; human, in vivo): mild or moderate in severity
subjects who discontinued the study due to AEs ([6]; human, in vivo): none
subjects with increases in ALT>2×ULN ([6]; human, in vivo): 3
dose level up to which well tolerated ([6]; single oral dose): up to 450 mg
transferrin saturation mean percent change from baseline [7, 13]: 1.6%
transferrin saturation mean percent change from baseline [7, 14]: 30.1%
transferrin saturation mean percent change from baseline [7, 15]: 1.5%
transferrin saturation mean percent change from baseline [7, 16]: 7.5%
observed PD response (transferrin saturation) ([7]; once-daily doses of 50 mg): not substantially different from placebo
observed PD response (transferrin saturation) ([7]; single dose of 30 mg, liquid formulation): not substantially different from placebo
effect on transferrin saturation ([7]; single or repeated doses of 100 mg or above): sustained, dose-related increases in transferrin saturation
earliest decrease in hepcidin after first dose ([8]; MAD Cohort 5, 100 mg): 4 h
effect on serum hepcidin versus placebo ([8]; once-daily oral over 7 days, similar at 50 mg, 100 mg and 200 mg): robust decreases in baseline hepcidin

COc1cc2c(-c3cnn4cc(N5CC(N6CCN(C)CC6)C5)cnc34)ccnc2cc1F [Formula I-42]
peak serum iron ([9]; at 16 hours, average): 716.31 µg/dL
onset of serum iron increase ([9]; third treatment day): eight hours post-administration
time of peak serum iron ([9]; third treatment day, post-administration): 16 h
effect on serum iron ([9]; third treatment day, wild-type mice): increased serum iron
onset of hepcidin reduction [10]: as soon as four hours post-administration
hepcidin reduction sustained through ([10]; post-administration): 12 h
effect on circulating hepcidin ([10]; wild-type mice): reduced circulating hepcidin levels
effect on liver iron content [11]: reduce liver iron content; also recorded: significantly reduced liver iron content
effect on non-dextran-bound iron content in livers [12]: significantly reduced non-dextran-bound iron content
